# Experimental data published in ChEMBL document CHEMBL1201862, “PubChem BioAssay data set” (2004).
#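 Exposure lasted 48 hours, with cells grown in 96-well plates and compounds tested at five concentrations. GI50 is the concentration that inhibits growth by half.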 Calls of active or inactive are those of the source. Cut-off read from the data, not from the text of the source: active = GI50 up to about 1.1 µM and inactive = higher.
# Assays:
# Assay in all cases: NCI anticancer screen, dose series, 48 h
# [1] = tested on: DLD-1
# [2] = tested on: OVCAR-4
# [3] = tested on: HL-60
# [4] = tested on: NCI-H460
# [5] = tested on: MOLT-4
# [6] = tested on: SK-MEL-5
# [7] = tested on: UACC-62
# [8] = tested on: SNB-75
# [9] = tested on: HCT-15
# [10] = tested on: CAKI-1
# [11] = tested on: 786-0
# [12] = tested on: SW-620
# [13] = tested on: M19-MEL
# [14] = tested on: SNB-19
# [15] = tested on: K562
# [16] = tested on: Malme-3M
# [17] = tested on: HCC 2998
# [18] = tested on: SF-295
# [19] = tested on: SN12C
# [20] = tested on: LXFL 529
# [21] = tested on: DMS-114
# [22] = tested on: SK-MEL-28
# [23] = tested on: SF-539
# [24] = tested on: TK-10
# [25] = tested on: IGROV-1
# [26] = tested on: M14
# [27] = tested on: OVCAR-5
# [28] = tested on: EKVX
# [29] = tested on: HOP-92
# [30] = tested on: NCI-H522
# [31] = tested on: UO-31
# [32] = tested on: RPMI-8226
# [33] = tested on: DMS-273
# [34] = tested on: HT-29
# [35] = tested on: KM-20L2
# [36] = tested on: XF498
# [37] = tested on: RXF 393
# [38] = tested on: NCI-H226
# [39] = tested on: OVCAR-8
# [40] = tested on: SR
# [41] = tested on: HOP-62
# [42] = tested on: CCRF-CEM
# [43] = tested on: OVCAR-3
# [44] = tested on: SK-MEL-2
# [45] = tested on: SK-OV-3
# [46] = tested on: KM12
# [47] = tested on: ACHN
# [48] = tested on: NCI-H23
# [49] = tested on: COLO 205
# [50] = tested on: HCT-116
# [51] = tested on: RXF 631
# [52] = tested on: SF-268
# [53] = tested on: U-251
# [54] = tested on: A549
# [55] = tested on: LOX IMVI
# [56] = tested on: SNB-78
# [57] = tested on: A498
# [58] = tested on: UACC-257
# [59] = tested on: HOP-18
smiles,measurement,setting,value
CCCC(=O)c1ccc(=O)n(C)c1,GI50,[1],> 100 µM (inactive)
same,GI50,[2],> 100 µM (inactive)
same,GI50,[3],> 100 µM (inactive)
same,GI50,[4],> 100 µM (inactive)
same,GI50,[5],> 100 µM (inactive)
same,GI50,[6],> 100 µM (inactive)
same,GI50,[7],> 100 µM (inactive)
same,GI50,[8],> 100 µM (inactive)
same,GI50,[9],> 100 µM
same,GI50,[10],> 100 µM (inactive)
same,GI50,[11],> 100 µM (inactive)
same,GI50,[12],> 100 µM (inactive)
same,GI50,[13],> 100 µM (inactive)
same,GI50,[14],> 100 µM (inactive)
same,GI50,[15],> 100 µM (inactive)
same,GI50,[16],> 100 µM (inactive)
same,GI50,[17],> 100 µM (inactive)
same,GI50,[18],> 100 µM (inactive)
same,GI50,[19],> 100 µM (inactive)
same,GI50,[20],> 100 µM (inactive)
same,GI50,[21],> 100 µM (inactive)
same,GI50,[22],> 100 µM (inactive)
same,GI50,[23],> 100 µM (inactive)
same,GI50,[24],> 100 µM (inactive)
same,GI50,[25],> 100 µM (inactive)
same,GI50,[26],> 100 µM (inactive)
same,GI50,[27],> 100 µM (inactive)
same,GI50,[28],> 100 µM (inactive)
same,GI50,[29],> 100 µM (inactive)
same,GI50,[30],> 100 µM (inactive)
same,GI50,[31],> 100 µM (inactive)
same,GI50,[32],> 100 µM (inactive)
same,GI50,[33],> 100 µM (inactive)
same,GI50,[34],> 100 µM (inactive)
same,GI50,[35],> 100 µM (inactive)
same,GI50,[36],> 100 µM (inactive)
same,GI50,[37],> 100 µM (inactive)
same,GI50,[38],> 100 µM (inactive)
same,GI50,[39],> 100 µM (inactive)
same,GI50,[40],> 100 µM (inactive)
same,GI50,[41],> 100 µM (inactive)
same,GI50,[42],> 100 µM (inactive)
same,GI50,[43],> 100 µM (inactive)
same,GI50,[44],> 100 µM (inactive)
same,GI50,[45],> 100 µM (inactive)
same,GI50,[46],> 100 µM (inactive)
same,GI50,[47],> 100 µM (inactive)
same,GI50,[48],> 100 µM (inactive)
same,GI50,[49],> 100 µM (inactive)
same,GI50,[50],> 100 µM (inactive)
same,GI50,[51],88.3 µM (inactive)
same,GI50,[52],> 100 µM (inactive)
same,GI50,[53],> 100 µM (inactive)
same,GI50,[54],> 100 µM (inactive)
same,GI50,[55],> 100 µM (inactive)
OC(c1ccccc1)C1CC2C=CC1C2 (stereo unspecified),GI50,[1],> 100 µM (inactive)
same,GI50,[2],> 100 µM (inactive)
same,GI50,[3],> 100 µM (inactive)
same,GI50,[4],> 100 µM (inactive)
same,GI50,[56],> 100 µM (inactive)
same,GI50,[5],> 100 µM (inactive)
same,GI50,[6],> 100 µM (inactive)
same,GI50,[7],> 100 µM (inactive)
same,GI50,[8],> 100 µM (inactive)
same,GI50,[9],> 100 µM
same,GI50,[10],> 100 µM (inactive)
same,GI50,[12],> 100 µM (inactive)
same,GI50,[13],> 100 µM (inactive)
same,GI50,[14],> 100 µM (inactive)
same,GI50,[15],> 100 µM (inactive)
same,GI50,[16],> 100 µM (inactive)
same,GI50,[18],> 100 µM (inactive)
same,GI50,[19],> 100 µM (inactive)
same,GI50,[20],> 100 µM (inactive)
same,GI50,[21],> 100 µM (inactive)
same,GI50,[57],> 100 µM (inactive)
same,GI50,[22],> 100 µM (inactive)
same,GI50,[23],> 100 µM (inactive)
same,GI50,[24],> 100 µM (inactive)
same,GI50,[25],> 100 µM (inactive)
same,GI50,[26],> 100 µM (inactive)
same,GI50,[58],> 100 µM (inactive)
same,GI50,[27],> 100 µM (inactive)
same,GI50,[28],> 100 µM (inactive)
same,GI50,[29],> 100 µM (inactive)
same,GI50,[30],> 100 µM (inactive)
same,GI50,[31],> 100 µM (inactive)
same,GI50,[32],> 100 µM (inactive)
same,GI50,[33],> 100 µM (inactive)
same,GI50,[34],> 100 µM (inactive)
same,GI50,[36],> 100 µM (inactive)
same,GI50,[37],> 100 µM (inactive)
same,GI50,[39],> 100 µM (inactive)
same,GI50,[41],> 100 µM (inactive)
same,GI50,[42],> 100 µM (inactive)
same,GI50,[43],> 100 µM (inactive)
same,GI50,[44],> 100 µM (inactive)
same,GI50,[45],> 100 µM (inactive)
same,GI50,[46],> 100 µM (inactive)
same,GI50,[47],> 100 µM (inactive)
same,GI50,[48],> 100 µM (inactive)
same,GI50,[49],> 100 µM (inactive)
same,GI50,[50],> 100 µM (inactive)
same,GI50,[51],> 100 µM (inactive)
same,GI50,[52],> 100 µM (inactive)
same,GI50,[53],> 100 µM (inactive)
same,GI50,[54],> 100 µM (inactive)
same,GI50,[55],> 100 µM (inactive)
COc1cc(C(=O)C/C(CCC(=O)Nc2ccccc2[N+](=O)[O-])=N\NC(=O)CC#N)ccc1O,GI50,[1],> 100 µM (inactive)
same,GI50,[2],> 100 µM (inactive)
same,GI50,[3],> 100 µM (inactive)
same,GI50,[59],> 100 µM (inactive)
same,GI50,[4],> 100 µM (inactive)
same,GI50,[5],> 100 µM (inactive)
same,GI50,[6],> 100 µM (inactive)
same,GI50,[7],> 100 µM (inactive)
same,GI50,[8],49.1 µM (inactive)
same,GI50,[9],> 100 µM
same,GI50,[10],> 100 µM (inactive)
same,GI50,[11],> 100 µM (inactive)
same,GI50,[12],> 100 µM (inactive)
same,GI50,[13],> 100 µM (inactive)
same,GI50,[14],> 100 µM (inactive)
same,GI50,[15],> 100 µM (inactive)
same,GI50,[16],> 100 µM (inactive)
same,GI50,[17],> 100 µM (inactive)
same,GI50,[18],> 100 µM (inactive)
same,GI50,[19],> 100 µM (inactive)
same,GI50,[20],> 100 µM (inactive)
same,GI50,[57],40.7 µM (inactive)
same,GI50,[22],> 100 µM (inactive)
same,GI50,[23],> 100 µM (inactive)
same,GI50,[24],> 100 µM (inactive)
same,GI50,[25],> 100 µM (inactive)
same,GI50,[26],> 100 µM (inactive)
same,GI50,[58],> 100 µM (inactive)
same,GI50,[27],> 100 µM (inactive)
same,GI50,[28],> 100 µM (inactive)
same,GI50,[30],> 100 µM (inactive)
same,GI50,[31],> 100 µM (inactive)
same,GI50,[32],> 100 µM (inactive)
same,GI50,[33],> 100 µM (inactive)
same,GI50,[34],> 100 µM (inactive)
same,GI50,[35],> 100 µM (inactive)
same,GI50,[36],> 100 µM (inactive)
same,GI50,[37],> 100 µM (inactive)
same,GI50,[38],> 100 µM (inactive)
same,GI50,[39],> 100 µM (inactive)
same,GI50,[41],> 100 µM (inactive)
same,GI50,[42],> 100 µM (inactive)
same,GI50,[43],> 100 µM (inactive)
same,GI50,[44],> 100 µM (inactive)
same,GI50,[45],> 100 µM (inactive)
same,GI50,[46],> 100 µM (inactive)
same,GI50,[47],> 100 µM (inactive)
same,GI50,[48],> 100 µM (inactive)
same,GI50,[49],> 100 µM (inactive)
same,GI50,[51],> 100 µM (inactive)
same,GI50,[52],> 100 µM (inactive)
same,GI50,[54],> 100 µM (inactive)
same,GI50,[55],> 100 µM (inactive)
Cc1cc(C)nc(NS(=O)(=O)c2ccc(NC(=O)c3cccc4c(Nc5ccc(S(=O)(=O)Nc6nc(C)cc(C)n6)cc5)c5ccccc5nc34)cc2)n1,GI50,[1],19 µM (inactive)
same,GI50,[2],25.7 µM (inactive)
same,GI50,[3],18.1 µM (inactive)
same,GI50,[59],12.2 µM (inactive)
same,GI50,[4],32 µM (inactive)
same,GI50,[56],39.6 µM (inactive)
same,GI50,[5],22.4 µM (inactive)
same,GI50,[6],16.6 µM (inactive)
same,GI50,[7],19.1 µM (inactive)
same,GI50,[8],3.44 µM (inactive)
same,GI50,[9],21.6 µM
same,GI50,[10],22.8 µM (inactive)
same,GI50,[11],19.6 µM (inactive)
same,GI50,[12],28.1 µM (inactive)
same,GI50,[13],29.5 µM (inactive)
same,GI50,[14],10.2 µM (inactive)
same,GI50,[15],19.4 µM (inactive)
same,GI50,[16],27.6 µM (inactive)
same,GI50,[18],21.4 µM (inactive)
same,GI50,[19],14.3 µM (inactive)
same,GI50,[20],21.3 µM (inactive)
same,GI50,[57],18.7 µM (inactive)
same,GI50,[22],14.6 µM (inactive)
same,GI50,[23],15.4 µM (inactive)
same,GI50,[24],27.2 µM (inactive)
same,GI50,[25],32.8 µM (inactive)
same,GI50,[26],25.1 µM (inactive)
same,GI50,[58],23 µM (inactive)
same,GI50,[27],> 10 µM (inactive)
same,GI50,[28],24.2 µM (inactive)
same,GI50,[29],18.9 µM (inactive)
same,GI50,[30],13.2 µM (inactive)
same,GI50,[31],17.7 µM (inactive)
same,GI50,[32],20.2 µM (inactive)
same,GI50,[33],17.9 µM (inactive)
same,GI50,[34],20 µM (inactive)
same,GI50,[35],20.1 µM (inactive)
same,GI50,[36],33.6 µM (inactive)
same,GI50,[37],14.7 µM (inactive)
same,GI50,[39],24.7 µM (inactive)
same,GI50,[41],21 µM (inactive)
same,GI50,[42],22.2 µM (inactive)
same,GI50,[43],19.9 µM (inactive)
same,GI50,[44],34 µM (inactive)
same,GI50,[45],26 µM (inactive)
same,GI50,[46],18.5 µM (inactive)
same,GI50,[47],23.4 µM (inactive)
same,GI50,[48],20.3 µM (inactive)
same,GI50,[49],22.9 µM (inactive)
same,GI50,[50],11.7 µM (inactive)
same,GI50,[51],18.1 µM (inactive)
same,GI50,[52],12.9 µM (inactive)
same,GI50,[53],16.4 µM (inactive)
same,GI50,[54],25.8 µM (inactive)
same,GI50,[55],17.6 µM (inactive)
